Measurements: ChEMBL document CHEMBL1201862, “PubChem BioAssay data set” (2004)
Calls of active or inactive are those of the source.

Experiments:
[1] = Trypanosoma cruzi growth suppression in host cells – NIH3T3 host cells, beta-gal luminescence, confirmation (AID 2044); assay type: functional, cell-based;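 further: intracellular parasites grown in NIH/3T3 mouse fibroblasts as host cells; luminescent beta-galactosidase reporter signal from transgenic T. cruzi replicating inside host cells; inhibitors lower the luminescence signal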
[2] = NIH3T3 cell viability loss – ATP luminescence, mouse fibroblasts, counter-screen, dose response (AID 2010); assay type: functional, cell-based;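 further: cells exposed to compound for about 90 hours before reading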
[3] = viability of uninfected HEp-2 cells – cell-based, HTS, cytotoxicity control for RSV inhibitor project, dose response (AID 2410); assay type: functional; settings: human respiratory syncytial virus
Cytochrome P450 2C19 = Cytochrome P450 2C19 (Homo sapiens, UniProt P33261); test: Cytochrome panel assay with activity outcomes. Panel member name: p450-cyp2c19 Compounds with AC50 equal or less than 10 uM are considered active; assay type: functional; settings: read-out: AC50
Sequence of Cytochrome P450 2C19 (P33261 whole entry): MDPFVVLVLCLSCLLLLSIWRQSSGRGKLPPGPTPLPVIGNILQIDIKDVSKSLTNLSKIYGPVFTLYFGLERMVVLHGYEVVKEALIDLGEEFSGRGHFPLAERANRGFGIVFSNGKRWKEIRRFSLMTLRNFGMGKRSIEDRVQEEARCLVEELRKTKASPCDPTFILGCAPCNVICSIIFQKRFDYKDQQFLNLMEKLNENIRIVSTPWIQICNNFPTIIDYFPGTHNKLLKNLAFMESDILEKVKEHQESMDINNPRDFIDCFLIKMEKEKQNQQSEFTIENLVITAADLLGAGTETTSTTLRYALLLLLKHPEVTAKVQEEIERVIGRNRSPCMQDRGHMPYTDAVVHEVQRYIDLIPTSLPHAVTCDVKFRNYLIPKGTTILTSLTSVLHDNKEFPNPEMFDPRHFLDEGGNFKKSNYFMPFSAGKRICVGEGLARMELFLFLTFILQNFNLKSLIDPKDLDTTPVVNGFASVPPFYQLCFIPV

Cytochrome P450 2C9 = Cytochrome P450 2C9 (Homo sapiens, UniProt P11712)
Sequence of Cytochrome P450 2C9 (P11712 whole entry): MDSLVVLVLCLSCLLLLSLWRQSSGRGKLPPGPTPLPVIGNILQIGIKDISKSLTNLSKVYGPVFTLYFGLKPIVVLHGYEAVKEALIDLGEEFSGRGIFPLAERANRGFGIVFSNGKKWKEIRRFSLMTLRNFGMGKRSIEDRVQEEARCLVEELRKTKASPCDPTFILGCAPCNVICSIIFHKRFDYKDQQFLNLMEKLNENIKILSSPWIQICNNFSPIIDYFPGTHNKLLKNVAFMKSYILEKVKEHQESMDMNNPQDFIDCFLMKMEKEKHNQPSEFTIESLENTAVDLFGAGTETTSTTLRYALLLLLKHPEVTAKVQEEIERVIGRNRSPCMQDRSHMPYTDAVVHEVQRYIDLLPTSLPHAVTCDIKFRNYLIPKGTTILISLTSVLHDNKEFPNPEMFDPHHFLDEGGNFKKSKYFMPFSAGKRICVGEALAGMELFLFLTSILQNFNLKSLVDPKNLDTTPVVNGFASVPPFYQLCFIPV

[4] = system: Streptococcus sp. 'group A'; test: Streptococcus pyogenes SK(-)GAS viability under kanamycin – luminescence, BacTiterGlo, confirmation, counter-screen for streptokinase expression inhibitor project, dose response (AID 1900); assay type: functional, organism-based
Streptococcus = test: GAS UMAA2166 growth inhibition – luminescence, BacTiterGlo, counter-screen for streptokinase expression inhibitor project, dose response (AID 1915); assay type: functional, organism-based;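 further: potency for reduction of bacterial viability or growth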
Cytochrome P450 3A4 = Cytochrome P450 3A4 (Homo sapiens, UniProt P08684);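 further: CYP3A4 tested as one member of a cytochrome P450 panel screen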
Sequence of Cytochrome P450 3A4 (P08684 whole entry): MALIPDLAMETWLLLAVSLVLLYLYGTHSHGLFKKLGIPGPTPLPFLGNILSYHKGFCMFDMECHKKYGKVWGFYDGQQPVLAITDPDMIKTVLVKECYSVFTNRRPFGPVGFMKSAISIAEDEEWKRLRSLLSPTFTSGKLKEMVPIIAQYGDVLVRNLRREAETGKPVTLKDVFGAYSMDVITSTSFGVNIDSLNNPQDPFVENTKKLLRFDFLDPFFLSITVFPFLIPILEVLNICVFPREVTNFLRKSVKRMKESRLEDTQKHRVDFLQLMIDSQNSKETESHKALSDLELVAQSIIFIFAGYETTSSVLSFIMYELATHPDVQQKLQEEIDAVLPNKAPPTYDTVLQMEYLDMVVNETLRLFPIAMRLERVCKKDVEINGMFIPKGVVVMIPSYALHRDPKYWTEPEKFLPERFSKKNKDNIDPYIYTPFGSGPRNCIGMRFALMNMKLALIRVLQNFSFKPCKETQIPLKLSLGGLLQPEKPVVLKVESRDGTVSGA

[5] = target: T1, Rac GTPase-activating protein 1 (Homo sapiens, UniProt Q9H0H5); test: blockers of MgcRacGAP-driven Rac1 GTP hydrolysis – biochemical, ADP Hunter fluorescence, primary and confirmatory, confirmation (AID 624330); assay type: functional
T1 sequence (Q9H0H5 whole entry): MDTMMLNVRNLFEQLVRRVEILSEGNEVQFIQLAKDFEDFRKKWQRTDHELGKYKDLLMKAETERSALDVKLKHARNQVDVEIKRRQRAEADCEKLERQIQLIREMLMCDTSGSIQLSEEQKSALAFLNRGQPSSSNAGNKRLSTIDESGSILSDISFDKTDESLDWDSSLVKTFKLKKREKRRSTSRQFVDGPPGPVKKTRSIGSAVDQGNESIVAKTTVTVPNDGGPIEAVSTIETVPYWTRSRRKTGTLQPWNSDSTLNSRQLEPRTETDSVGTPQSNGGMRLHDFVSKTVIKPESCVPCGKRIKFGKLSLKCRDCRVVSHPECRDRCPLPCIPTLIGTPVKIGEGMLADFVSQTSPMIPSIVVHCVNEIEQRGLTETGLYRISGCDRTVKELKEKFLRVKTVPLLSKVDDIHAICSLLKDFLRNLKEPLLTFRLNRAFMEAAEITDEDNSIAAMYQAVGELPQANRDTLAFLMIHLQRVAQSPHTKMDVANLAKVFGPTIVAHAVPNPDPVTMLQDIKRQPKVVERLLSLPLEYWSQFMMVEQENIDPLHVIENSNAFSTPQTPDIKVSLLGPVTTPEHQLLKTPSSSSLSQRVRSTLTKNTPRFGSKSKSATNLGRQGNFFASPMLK

Protein RecA = target: T2, Protein RecA (Mycobacterium tuberculosis, UniProt P9WHJ3); test: Fluorescence Cell-Free Homogeneous Dose Retest to Identify Inhibitors of RecA-Intein Splicing Activity. [Related pubchem assays (depositor defined):AID2097, AID2223, AID489010, AID492950]; assay type: functional
T2 sequence (P9WHJ3 whole entry): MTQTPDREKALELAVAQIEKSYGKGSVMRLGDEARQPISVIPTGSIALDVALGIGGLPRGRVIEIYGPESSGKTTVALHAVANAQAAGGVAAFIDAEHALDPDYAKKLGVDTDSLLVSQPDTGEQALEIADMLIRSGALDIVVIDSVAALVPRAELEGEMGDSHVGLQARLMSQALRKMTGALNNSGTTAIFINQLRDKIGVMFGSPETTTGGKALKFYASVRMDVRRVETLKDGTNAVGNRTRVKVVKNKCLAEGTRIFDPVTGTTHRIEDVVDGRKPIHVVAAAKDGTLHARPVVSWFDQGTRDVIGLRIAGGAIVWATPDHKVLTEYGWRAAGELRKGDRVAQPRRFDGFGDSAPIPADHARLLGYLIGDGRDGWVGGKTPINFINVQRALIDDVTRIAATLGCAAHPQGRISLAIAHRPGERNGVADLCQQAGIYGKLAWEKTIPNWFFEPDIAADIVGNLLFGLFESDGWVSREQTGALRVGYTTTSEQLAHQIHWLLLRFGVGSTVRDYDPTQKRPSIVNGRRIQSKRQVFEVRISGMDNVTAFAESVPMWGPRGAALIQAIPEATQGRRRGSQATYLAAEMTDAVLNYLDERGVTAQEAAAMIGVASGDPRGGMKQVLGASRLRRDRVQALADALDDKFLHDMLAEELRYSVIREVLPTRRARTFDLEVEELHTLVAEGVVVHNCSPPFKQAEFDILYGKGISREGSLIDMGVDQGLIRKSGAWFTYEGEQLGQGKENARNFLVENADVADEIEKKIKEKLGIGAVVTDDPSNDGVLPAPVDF

Question: With Cc1ccc(O)c(C(=O)c2cc(C(=O)NCCc3ccccc3)c(=O)n(CCc3ccccc3)c2)c1 as the molecule, how does the EC50 [1] read?
Answer: 2.02 µM (active)

Question: And the EC50 [2]?
Answer: > 30 µM (not active)

Question: For O=C(COC(=O)c1c2ccccc2cc2ccccc12)NCC(F)(F)F, which CC50 [3] is on record?
Answer: 23.6 µM (active)

Question: For CCN(C(=O)CSc1nnc(Cn2nnc3ccccc32)o1)c1nc(-c2ccccc2)cs1, which CC50 [3] is on record?
Answer: 26.4 µM (active)

Question: Which CC50 [3] does the source give for O=C(CN1CCN(c2nc(-c3ccccc3)cs2)CC1)NCc1ccc2c(c1)OCO2 here?
Answer: 11 µM (active)

Question: Which AC50 (Cytochrome P450 2C19) does the source give for O=C(O)[C@H](Cc1cc(I)c(O)c(I)c1)C1CCCCC1 here?
Answer: 2 µM (inconclusive)

Question: And the AC50 (Cytochrome P450 2C9)?
Answer: 3.16 µM (inconclusive)

Question: Which AC50 (Cytochrome P450 2C9) does the source give for CCC(C#CCN1CCCCC1)(CC)OCCC#N here?
Answer: 0.355 µM (inconclusive)

Question: Which AC50 (Cytochrome P450 2C19) does the source give for COc1ccc2c(c1OC)C(=O)OC2Nc1ncccc1C (centres undefined) here?
Answer: 39.8 µM (inconclusive)

Question: With CCOC(=O)c1cnc2cc(-c3ccc(C(C)(C)C)cc3)nn2c1N as the molecule, how does the AC50 (Cytochrome P450 2C9) read?
Answer: 3.16 µM (inconclusive)

Question: For COc1ccc(CSCCN=C(S)Nc2ccccc2)cc1Cl, which EC50 [4] is on record?
Answer: 18.5 µM (active)

Question: What about the EC50 (Streptococcus) of the same molecule?
Answer: > 150 µM (not active)

Question: For COc1ccc(C(=O)CC(=O)C(=O)Nc2ccccc2C(F)(F)F)cc1, which EC50 [4] is on record?
Answer: 3.52 µM (active)

Question: What about the EC50 (Streptococcus) of the same molecule?
Answer: 8.59 µM (active)

Question: With CS(=O)(=O)N1CCN(c2ccc([N+](=O)[O-])c(NCc3ccccc3)c2)CC1 as the molecule, how does the AC50 (Cytochrome P450 2C19) read?
Answer: 31.6 µM (inconclusive)

Question: And the AC50 (Cytochrome P450 3A4)?
Answer: 31.6 µM (inconclusive)

Question: With Cc1ccc2nc(NC(=O)COC(=O)CSc3nc(C)cc(C)n3)sc2c1 as the molecule, how does the AC50 (Cytochrome P450 2C19) read?
Answer: 5.01 µM (inconclusive)

Question: With Cc1ccc(-n2cnc3cc(NCc4cccs4)ccc32)cc1 as the molecule, how does the CC50 [3] read?
Answer: 25.3 µM (active)

Question: With COc1ccc(NC(=O)CSc2nc(-c3ccc(C)cc3)cc(C(F)(F)F)c2C#N)cc1 as the molecule, how does the AC50 (Cytochrome P450 2C19) read?
Answer: 20 µM (inconclusive)

Question: With COc1cc(/C=C/CN2CCC(CO)(CC3CCCCO3)CC2)ccc1O (centres undefined) as the molecule, how does the IC50 [5] read?
Answer: 91.2 µM (active)

Question: For C=CCOC(=O)C1=C(C)NC(=O)NC1c1ccc(OC(=O)c2ccco2)c(OC)c1 (centres undefined), which EC50 (Protein RecA) is on record?
Answer: 18 µM (active)

Question: With CCCC(=O)Nc1nc(C(=O)OCC)cs1 as the molecule, how does the AC50 (Cytochrome P450 2C19) read?
Answer: 39.8 µM (inconclusive)

Question: What does the source list for CCc1cccc(Nc2c([N+](=O)[O-])nn(-c3ccc4c(c3)OCCO4)[n+]2[O-])c1?
Answer: EC50 [1]: 0.272 µM (active); EC50 [2]: > 60 µM (inconclusive)

Question: With O=C(CN1CCN(C(c2ccccc2)c2ccccc2)CC1)N1CCN(c2ccccc2)CC1 as the molecule, how does the CC50 [3] read?
Answer: 23.9 µM (active)

Question: For COc1ccc(NC2CCCN(C(=O)c3oc(C)cc3C)C2)cc1OC (centres undefined), which IC50 [5] is on record?
Answer: 159 µM (active)

Question: With Cc1cc(C)c2c(CN3CCN(Cc4ccc5c(c4)OCO5)CC3)cc(=O)oc2c1 as the molecule, how does the CC50 [3] read?
Answer: 16.8 µM (active)

Question: With COc1ncc2nc(CCc3ccccc3)c(=O)n(C3CC3)c2n1 as the molecule, how does the AC50 (Cytochrome P450 3A4) read?
Answer: 31.6 µM (inconclusive)

Question: What does the source list for O=C(NC(Nc1cc(C(F)(F)F)ccc1Cl)C(=O)c1ccccc1)c1ccccc1 (centres undefined)?
Answer: EC50 [1]: 2.17 µM (active); EC50 [2]: > 30 µM (not active)

Question: For CCCc1nc2c(c(=O)c3ccccc3n2C)c(=O)n1-c1cc(C)cc(C)c1, which CC50 [3] is on record?
Answer: > 50 µM (active)

Question: Which results are given for COC(=O)C(O)(c1c(C)[nH]c2ccccc12)C(F)(F)F (centres undefined)?
Answer: AC50 (Cytochrome P450 3A4): 22.4 µM (inconclusive); AC50 (Cytochrome P450 2C9): 3.16 µM (inconclusive)

Question: Which results are given for COc1ccc(N(C(=O)Cn2nnc3ccccc32)C2(C(=O)NC3CCCC3)CCCCC2)cc1?
Answer: AC50 (Cytochrome P450 2C19): 14.1 µM (inconclusive); AC50 (Cytochrome P450 2C9): 22.4 µM (inconclusive)

Question: For COCCNc1nc(-c2ccc(C(=O)N(C)C)cc2)nc2ccccc12, which AC50 (Cytochrome P450 3A4) is on record?
Answer: 15.8 µM (inconclusive)

Question: What does the source list for Cc1nnc(SCC2=C(C(=O)O)N3C(=O)C(NC(=O)C(C)n4nc(C(F)(F)F)cc4C)C3SC2)s1 (centres undefined)?
Answer: EC50 [4]: 0.201 µM (active); EC50 (Streptococcus): 0.421 µM (active)

Question: Which AC50 (Cytochrome P450 2C9) does the source give for Cc1nc2cnc(Oc3cccc(Cl)c3)nc2n(CCC#N)c1=O here?
Answer: 39.8 µM (inconclusive)
